Test results taken from ChEMBL document CHEMBL3124848, “Crystal structures of human transthyretin complexed with glabridin” (J Med Chem, 2014).

Each compound was assayed against Transthyretin (Homo sapiens, UniProt P02766, V50M) (assay: Inhibition of transthyretin V30M mutant (unknown origin) expressed in Escherichia coli assessed as inhibition of sodium acetate-mediated aggregation preincubated for 30 mins followed by sodium acetate addition measured after 96 hrs by thioflavin T assay).

Row | IC50 | Compound
1 | 13 µM | Oc1ccc([C@@H]2COc3cc(O)ccc3C2)cc1
2 | 16 µM | O=c1c(-c2ccc(O)cc2)coc2cc(O)ccc12 [DAIDZEIN]
3 | 7.8 µM | O=c1c(-c2ccc(O)cc2)coc2cc(O)cc(O)c12 [GENISTEIN]
4 | 6.4 µM | CC1(C)C=Cc2c(ccc3c2OC[C@@H](c2ccc(O)cc2O)C3)O1 [GLABRIDIN]

Row | Compound | IC50
5 | O=c1cc(-c2ccc(O)c(O)c2)oc2cc(O)cc(O)c12 [LUTEOLIN] | 6.4 µM
